Data published in US20200131123A1, “INDOLE-FORMAMIDE DERIVATIVE, PREPARATION METHOD THEREFOR AND USE THEREOF IN MEDICINE” (Jiangsu Hengrui Medicine Co., Ltd., priority 2017, published 2020).
pEC50, pIC50: −log10 of the molar value. Where two headings read alike, the source gives them in different places.

Key:
RORγ LBD = target: T1, RORγ LBD (Homo sapiens, UniProt P51449); assay: LanthaScreen TR-FRET RORγ co-activation system, effect on in vitro activity of RORγ; type: biochemical; conditions: for EC50: TR-FRET RORγ co-activation, for agonist the value refers to EC50, read-out: EC50/IC50 a (nM): EC50 (agonist); for Type: agonist or inverse agonist of RORγ
T1 construct: RORγ LBD was diluted with the complete buffer D to a concentration of 1 ng/μL; GST; purchased AB Vector
T1 sequence (P51449 269-508 limits assumed): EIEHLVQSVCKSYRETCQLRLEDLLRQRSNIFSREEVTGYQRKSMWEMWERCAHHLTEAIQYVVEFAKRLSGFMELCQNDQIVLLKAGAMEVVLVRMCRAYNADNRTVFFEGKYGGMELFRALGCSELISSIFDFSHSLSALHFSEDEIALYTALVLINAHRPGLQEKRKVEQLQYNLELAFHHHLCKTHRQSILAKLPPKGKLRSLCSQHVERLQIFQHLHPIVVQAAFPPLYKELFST
Protocol: 1. LanthaScreen® TR-FRET RORγ co-activation system (Life Technologies)
A complete buffer D (complete TR-FRET Coregulator) (Life Technologies) was formulated first, containing a final concentration of 5 mM DTT. The final concentration of DMSO was 2%. The test compound was serially diluted to 2× final concentration in the complete buffer D containing 2% of DMSO, and the maximum dose was […]. The test compound was added to the test wells of a 384-well plate (PerkinElmer) in 10 μl/well. Two parallel control wells were set up for each test compound at the same concentration. 4×RORγ LBD (AB Vector) was formulated. RORγ LBD was diluted with the complete buffer D to a concentration of 1 ng/μL, and added to the test wells of 384-well plate in 5 μl/well. The negative control well was 5 μL of complete buffer D without RORγ LBD. A mixed solution comprising 0.6 μM of fluorescein-D22 (4×) and 8 nM of terbium(Tb)-labeled anti-GST antibody (4×) (Life Technologies) was formulated with the complete buffer D, and 5 μL of the mixed solution was added to the 384-well plate. The total reaction system was 20 μL. The 384-well plate was gently shaken on a shaker, and incubated at room temperature in the dark for 2-4 hours.
Fluorescence readings were determined with Tecan Infinite M1000. The logarithmic curve of the ratio of the emission wavelength of 520 nm/495 nm to the concentration of the compound was plotted by GraphPad Prism 6.0 software. EC50/IC50 value of the test compound was calculated.

IL-17A = IL-17A enzyme-linked immune quantitative assay in cytostim-activated human PBMC; type: cell-based; conditions: 72 h; IL-17A in supernatant of human PBMC, 3 days after drug treatment
Protocol: 1. Human peripheral blood mononuclear cells (PBMC) (Zenbio)
5. Human IL-17 enzyme-linked immunosorbent kit (R&D System)
Frozen human peripheral blood mononuclear cells (PBMC) were rapidly resuscitated in pre-warmed lymphocyte culture medium, and centrifuged at 1000 rpm for 10 min. The cell culture supernatant was removed. The cells were gently suspended in TexMACS medium and counted. The T cell activation reagent cytostim (10 μl/ml) was added in proportion to the cell suspension. Then, the cells were seeded in a 96-well cell culture plate at a density of 1×10^5 peripheral blood mononuclear cells/well. The test compounds were diluted in gradient with TexMACS medium, and added respectively to the test wells, with 2-3 parallel wells per group. A negative control well containing only cells without cytostim was provided to obtain the background reading. The cell culture plate was placed in a incubator at 5% carbon dioxide, 37° C. to incubate for 3 days. The cell culture supernatant was collected 3 days after drug treatment, and centrifuged to remove the suspension. Then, IL-17A in the supernatant was quantified with IL-17A enzyme-linked immunosorbent kit. EC50 values of the test compounds were calculated with GraphPad Prism 6.0.

[1] = for agonist the value refers to Emax(%), read-out: Emax(%)/maximum inhibition rate b: Emax(%) (agonist)

SMILES | EC50 (RORγ LBD) [nM] | Type (RORγ LBD) | Emax (RORγ LBD; [1]) [%] | pEC50 (IL-17A) | pIC50 (RORγ LBD) | Emax (RORγ LBD; read-out: Emax(%)/maximum inhibition rate b: maximum inhibition rate (inverse agonist)) [%] | Emax (IL-17A) [%]
CCS(=O)(=O)c1ccc(C(CO)NC(=O)c2ccc3c(c2)cc(Cc2ccccc2C(F)(F)F)n3C(C)C)cc1 (stereo not shown) [Example 1, N-(1-(4-(Ethylsulfonyl)phenyl)-2-hydroxyethyl)-1-isopropyl-2-(2-(trifluoromethyl)benzyl)-1H-indole-5-carboxamide] | 64 | Agonist | 94 |  |  |  | 
CCS(=O)(=O)c1ccc(C(CO)NC(=O)c2ccc3c(c2)cc(Cc2ccc(Cl)cc2C(F)(F)F)n3CCF)cc1 (stereo not shown) [Example 2, 2-(4-Chloro-2-(trifluoromethyl)benzyl)-N-(1-(4-(ethylsulfonyl)phenyl)-2-hydroxyethyl)-1-(2-fluoroethyl)-1H-indole-5-carboxamide] |  |  |  | 7.05 |  |  | 82
CCS(=O)(=O)c1ccc([C@H](CO)NC(=O)c2cc3cc(Cc4ccc(Cl)cc4C(F)(F)F)n(CCF)c3cc2F)cc1 [Example 5, (R)-2-(4-Chloro-2-(trifluoromethyl)benzyl)-N-(1-(4-(ethylsulfonyl)phenyl)-2-hydroxyethyl)-6-fluoro-1-(2-fluoroethyl)-1H-indole-5-carboxamide] | 334 | Agonist | 110 |  |  |  | 
CCS(=O)(=O)c1ccc([C@H](CO)NC(=O)c2cc3cc(Cc4ccc(Cl)cc4C(F)(F)F)n(C4CC4)c3cc2F)cc1 [Example 6, (R)-2-(4-Chloro-2-(trifluoromethyl)benzyl)-1-cyclopropyl-N-(1-(4-(ethylsulfonyl)phenyl)-2-hydroxyethyl)-6-fluoro-1H-indole-5-carboxamide] | 79 | Agonist | 105 |  |  |  | 
CCS(=O)(=O)c1ccc([C@H](CO)NC(=O)c2ccc3c(c2)cc(CN2CCOCC2C(F)(F)F)n3CCF)cc1 (stereo partly drawn) [Example 7, N—((R)-1-(4-(Ethylsulfonyl)phenyl)-2-hydroxyethyl)-1-(2-fluoroethyl)-2-((3-(trifluoromethyl)morpholino)methyl)-1H-indole-5-carboxamide] | 80 | Agonist | 84 |  |  |  | 
CCS(=O)(=O)c1ccc([C@H](COC)NC(=O)c2ccc3c(c2)cc(Cc2ccc(Cl)cc2C(F)(F)F)n3CCF)cc1 [Example 16, (R)-2-(4-Chloro-2-(trifluoromethyl)benzyl)-N-(1-(4-(ethylsulfonyl)phenyl)-2-methoxyethyl)-1-(2-fluoroethyl)-1H-indole-5-carboxamide] | 18 | Agonist | 97 | 8.10 |  |  | 99
CCS(=O)(=O)c1ccc([C@H](CO)NC(=O)c2ccc3c(c2)cc(Cc2ccc(C(F)(F)F)cc2)n3CCF)cc1 [Example 17, (R)-2-(4-(trifluoromethyl)benzyl)-N-(1-(4-(ethylsulfonyl)phenyl)-2-hydroxyethyl)-1-(2-fluoroethyl)-1H-indole-5-carboxamide] |  | Inverse agonist |  |  | 7.54 | 67 | 

Further lines, with some results ahead:

EC50 (RORγ LBD) [nM] | Type (RORγ LBD) | Emax (RORγ LBD; [1]) [%] | pEC50 (IL-17A) | pIC50 (RORγ LBD) | Emax (RORγ LBD; read-out: Emax(%)/maximum inhibition rate b: maximum inhibition rate (inverse agonist)) [%] | SMILES | Emax (IL-17A) [%]
 |  |  | 6.77 |  |  | CCS(=O)(=O)c1ccc([C@@H](CO)NC(=O)c2ccc3c(c2)cc(Cc2ccc(Cl)cc2C(F)(F)F)n3CCF)cc1 [Example 3, (S)-2-(4-Chloro-2-(trifluoromethyl)benzyl)-N-(1-(4-(ethylsulfonyl)phenyl)-2-hydroxyethyl)-1-(2-fluoroethyl)-1H-indole-5-carboxamide] | 136
22 |  | 94 | 6.56 |  |  | CCS(=O)(=O)c1ccc([C@H](CO)NC(=O)c2ccc3c(c2)cc(Cc2ccc(Cl)cc2C(F)(F)F)n3C2CC2)cc1 [Example 11, (R)-2-(4-Chloro-2-(trifluoromethyl)benzyl)-1-cyclopropyl-N-(1-(4-(ethylsulfonyl)phenyl)-2-hydroxyethyl)-1H-indole-5-carboxamide] | 72
13 | Agonist | 89 | 7.60 |  |  | O=C(N[C@@H](CO)c1ccc(S(=O)(=O)NC2CC2)cc1)c1ccc2c(c1)cc(Cc1ccc(Cl)cc1C(F)(F)F)n2CCF [Example 12, (R)-2-(4-Chloro-2-(trifluoromethyl)benzyl)-N-(1-(4-(N-cyclopropylsulfamoyl)phenyl)-2-hydroxyethyl)-1-(2-fluoroethyl)-1H-indole-5-carboxamide] | 71
69 | Agonist | 96 | 7.57 |  |  | O=C(N[C@@H](CO)c1ccc(S(=O)(=O)CC2CC2)cc1)c1ccc2c(c1)cc(Cc1ccc(Cl)cc1C(F)(F)F)n2CCF [Example 13, (R)-2-(4-Chloro-2-(trifluoromethyl)benzyl)-N-(1-(4-((cyclopropylmethyl)sulfonyl)phenyl)-2-hydroxyethyl)-1-(2-fluoroethyl)-1H-indole-5-carboxamide] | 65
138 | Agonist | 99 | 7.38 |  |  | O=C(N[C@@H](CO)c1ccc(S(=O)(=O)CC2CC2)cc1)c1ccc2c(c1)cc(Cc1ccc(F)cc1C(F)(F)F)n2CCF [Example 14, (R)—N-(1-(4-((Cyclopropylmethyl)sulfonyl)phenyl)-2-hydroxyethyl)-2-(4-fluoro-2-(trifluoromethyl)benzyl)-1-(2-fluoroethyl)-1H-indole-5-carboxamide] | 99
124 | Agonist | 109 |  |  |  | O=C(N[C@@H](CO)c1ccc(S(=O)(=O)C2CC2)cc1)c1ccc2c(c1)cc(Cc1ccc(Cl)cc1C(F)(F)F)n2CCF [Example 15, (R)-2-(4-Chloro-2-(trifluoromethyl)benzyl)-N-(1-(4-(cyclopropylsulfonyl)phenyl)-2-hydroxyethyl)-1-(2-fluoroethyl)-1H-indole-5-carboxamide] | 
